Where “and” joins values, the source holds several entries; their conditions need not be identical. Identical values can stand only once.
O=C(C(F)(F)C(F)(F)F)C(F)(C(F)(F)F)C(F)(F)F [dodecafluoro-2-methylpentan-3-one]
Conditions | thermal conductivity
344.55 K, 132 kPa, Gas, hot wire | 0.01525 W/m/K
344.55 K, 192 kPa, Gas, transient hot wire | 0.01458 W/m/K
344.56 K, 170 kPa, Gas, transient hot wire | 0.01468 W/m/K
344.56 K, 192 kPa, Gas, transient hot wire | 0.01463 W/m/K
344.57 K, 170 kPa, Gas, transient hot wire | 0.01503 W/m/K
344.6 K, 134 kPa, Gas, transient hot wire | 0.01526 W/m/K and 0.01525 W/m/K
344.61 K, 83 kPa, Gas, hot wire | 0.01485 W/m/K
344.62 K, 83 kPa, Gas, hot wire | 0.0148 W/m/K
344.67 K, 26 kPa, Gas, hot wire | 0.01453 W/m/K
344.68 K, 26 kPa, Gas, hot wire | 0.01449 W/m/K
344.8 K, 192 kPa, Gas, transient hot wire | 0.01479 W/m/K and 0.01481 W/m/K
344.83 K, 170 kPa, Gas, transient hot wire | 0.01525 W/m/K and 0.01449 W/m/K
344.85 K, 134 kPa, Gas, transient hot wire | 0.01542 W/m/K
344.87 K, 134 kPa, Gas, transient hot wire | 0.01544 W/m/K
345.08 K, 191 kPa, Gas, transient hot wire | 0.0149 W/m/K
345.08 K, 192 kPa, Gas, transient hot wire | 0.01491 W/m/K
345.11 K, 169 kPa, Gas, transient hot wire | 0.01531 W/m/K
345.11 K, 170 kPa, Gas, transient hot wire | 0.01528 W/m/K
345.14 K, 134 kPa, Gas, transient hot wire | 0.01546 W/m/K
345.15 K, 133 kPa, Gas, transient hot wire | 0.01547 W/m/K
345.36 K, 191 kPa, Gas, transient hot wire | 0.01503 W/m/K
345.37 K, 191 kPa, Gas, transient hot wire | 0.01504 W/m/K
345.39 K, 169 kPa, Gas, transient hot wire | 0.01534 W/m/K
345.4 K, 169 kPa, Gas, transient hot wire | 0.01485 W/m/K
345.44 K, 133 kPa, Gas, transient hot wire | 0.01551 W/m/K
345.45 K, 133 kPa, Gas, transient hot wire | 0.0155 W/m/K
345.67 K, 191 kPa, Gas, transient hot wire | 0.01515 W/m/K
345.68 K, 191 kPa, Gas, transient hot wire | 0.01514 W/m/K
345.72 K, 169 kPa, Gas, transient hot wire | 0.0154 W/m/K and 0.01511 W/m/K
345.77 K, 132 kPa, Gas, transient hot wire | 0.01531 W/m/K
345.77 K, 133 kPa, Gas, transient hot wire | 0.01548 W/m/K
358.25 K, 257 kPa, Gas, hot wire | 0.01686 W/m/K
358.26 K, 257 kPa, Gas, hot wire | 0.01685 W/m/K
358.3 K, 188 kPa, Gas, hot wire | 0.01631 W/m/K
358.3 K, 189 kPa, Gas, hot wire | 0.01648 W/m/K
358.33 K, 91 kPa, Gas, hot wire | 0.01584 W/m/K
358.34 K, 91 kPa, Gas, hot wire | 0.01584 W/m/K
358.37 K, 26 kPa, Gas, hot wire | 0.01548 W/m/K and 0.01551 W/m/K
358.38 K, 256 kPa, Gas, hot wire | 0.01692 W/m/K
358.38 K, 257 kPa, Gas, hot wire | 0.01694 W/m/K
358.43 K, 187 kPa, Gas, hot wire | 0.01629 W/m/K
358.43 K, 188 kPa, Gas, hot wire | 0.01632 W/m/K
358.47 K, 91 kPa, Gas, hot wire | 0.01587 W/m/K and 0.0159 W/m/K
358.5 K, 26 kPa, Gas, hot wire | 0.01551 W/m/K
358.5 K, 256 kPa, Gas, hot wire | 0.01713 W/m/K
358.51 K, 26 kPa, Gas, hot wire | 0.0155 W/m/K
358.52 K, 256 kPa, Gas, hot wire | 0.0169 W/m/K
358.57 K, 187 kPa, Gas, hot wire | 0.01629 W/m/K and 0.01635 W/m/K
358.62 K, 91 kPa, Gas, hot wire | 0.01584 W/m/K and 0.01592 W/m/K
358.62 K, 255 kPa, Gas, hot wire | 0.01734 W/m/K
358.63 K, 256 kPa, Gas, hot wire | 0.01729 W/m/K
358.65 K, 67979 kPa, Liquid, transient hot wire | 0.07391 W/m/K
358.66 K, 26 kPa, Gas, hot wire | 0.01548 W/m/K and 0.01547 W/m/K
358.66 K, 67960 kPa, Liquid, transient hot wire | 0.07383 W/m/K
358.69 K, 56156 kPa, Liquid, transient hot wire | 0.07064 W/m/K
358.69 K, 56160 kPa, Liquid, transient hot wire | 0.07055 W/m/K
358.71 K, 187 kPa, Gas, hot wire | 0.01648 W/m/K and 0.01644 W/m/K
358.77 K, 92 kPa, Gas, hot wire | 0.01588 W/m/K and 0.01586 W/m/K
358.77 K, 255 kPa, Gas, hot wire | 0.01736 W/m/K
358.77 K, 43866 kPa, Liquid, transient hot wire | 0.06694 W/m/K
358.77 K, 43876 kPa, Liquid, transient hot wire | 0.06686 W/m/K
358.78 K, 255 kPa, Gas, hot wire | 0.01726 W/m/K
358.82 K, 26 kPa, Gas, hot wire | 0.01555 W/m/K and 0.0155 W/m/K
358.82 K, 67912 kPa, Liquid, transient hot wire | 0.07388 W/m/K
358.82 K, 67930 kPa, Liquid, transient hot wire | 0.07402 W/m/K
358.83 K, 33615 kPa, Liquid, transient hot wire | 0.06347 W/m/K
358.84 K, 257 kPa, Gas, transient hot wire | 0.01632 W/m/K
358.84 K, 258 kPa, Gas, transient hot wire | 0.01621 W/m/K
358.84 K, 33614 kPa, Liquid, transient hot wire | 0.06347 W/m/K
358.85 K, 186 kPa, Gas, hot wire | 0.0166 W/m/K and 0.01657 W/m/K
358.85 K, 56137 kPa, Liquid, transient hot wire | 0.07063 W/m/K
358.88 K, 189 kPa, Gas, transient hot wire | 0.01639 W/m/K
358.88 K, 56124 kPa, Liquid, transient hot wire | 0.07064 W/m/K
358.9 K, 188 kPa, Gas, transient hot wire | 0.01635 W/m/K
358.92 K, 24957 kPa, Liquid, transient hot wire | 0.06017 W/m/K
358.92 K, 24958 kPa, Liquid, transient hot wire | 0.06023 W/m/K
358.94 K, 92 kPa, Gas, hot wire | 0.01588 W/m/K
358.95 K, 92 kPa, Gas, hot wire | 0.01588 W/m/K
358.95 K, 43858 kPa, Liquid, transient hot wire | 0.06694 W/m/K
358.95 K, 43862 kPa, Liquid, transient hot wire | 0.06691 W/m/K
358.98 K, 26 kPa, Gas, hot wire | 0.01553 W/m/K
358.99 K, 26 kPa, Gas, hot wire | 0.0155 W/m/K
358.99 K, 67877 kPa, Liquid, transient hot wire | 0.0739 W/m/K
358.99 K, 67897 kPa, Liquid, transient hot wire | 0.07388 W/m/K
